Reference: patent publication US20230348419A1, “BIAMINOQUINOLINES AND NANOFORMULATIONS FOR CANCER TREATMENT” (The Regents of the University of California, priority 2019, published 2023)
Where two headings read alike, the source gives them in different places.

Legend:
[1] = Drug loading using BAQ13 NPs; format: physicochemical; details: for PDI / Size/diameter: BAQ13 NPs loaded with the drug or dye; for Encapsulation efficiency / Drug-loading content: drug or dye loaded in BAQ13 NPs; for Drug-loading content: mass ratio
Protocol: (§1) Preparation and characterization of BAQ ONNs. NPs were prepared through the re-precipitation method. BAQ derivatives in methanol were added dropwise into MilliQ water while stirring for 5 min (volume ratio, 1:10), and then homogenous NPs were obtained after rotary evaporation (40° C., 20 min), followed by the characterization with Zetasizer Nano ZS (Malvern). The TEM samples were prepared by dropping 0.5 mM NPs on carbon square mesh and dried naturally, which were then observed under the Talos L120C TEM (FEI) at an accelerating voltage of 80 kV. To determine the drug content in nanoformulations, the prepared drug-loaded NPs were cut off by centrifugal filter (ultracel-10 kDa, Millipore), and the absorbance of filtrate (diluted with DMSO, 1:10, volume ratio) was measured for calculation of drug concentrations.
Next investigation was whether liposome-like BAQ ONNs can encapsulate additional agents. Upon nanoprecipitation of BAQ13 and various agents, homogeneous NPs with monomodal size distributions spontaneously formed (Table 2 and FIG. 9G).

[2] = tested on: three pancreatic cancer cell lines (MIA PaCa-2, BxPC-3, and PANC-1) and two colon cancer cell lines (HT29 and HCT116); assay: 48 h MTS assay on pancreatic and colon cancer cell lines; format: cell-based
Protocol: (§2) Cell viability, cell growth and colony formation. Cell viability was assessed by the MTS assay. Briefly, cells in 96-well plates (4,000 cell per well) were treated as indicated, followed by the incubation with MTS regents for 4 h. OD values (490 nm) were determined via a microplate reader. Results were shown as the average cell viability calculated from the formula of [(ODtreat−ODblank)/(ODcontrol−ODblank)×100%]. Drug combination data were analyzed by Combenefit 2.02. In cell growth assay, cells in 6-well plates (50,000 cell per well) were treated as indicated and were counted manually every 24 h. Colony formation assay was also performed on 6-well plates with a starting density of 1,000-2,000 cells per well. After incubated as indicated for 10-20 days, cells were washed with PBS and stained with the solution of crystal violet and methanol for 20 min.
In vitro antitumour activity of BAQ derivatives. To systematically investigate the antitumour effects in vitro, three pancreatic cancer cell lines (MIA PaCa-2, BxPC-3, and PANC-1) and two colon cancer cell lines (HT29 and HCT116) were selected for a 48 h MTS assay. […] The improved anticancer activity of BAQ ONNs is attributable to their multiple functions in inducing LMP, lysosomal dysfunction and autophagy inhibition in cancer cells; these effects are considered to be important triggers of apoptosis. To examine the proapoptotic effects of BAQ ONNs, apoptosis signals in MIA PaCa-2 and HT29 cells was subsequently detected. […] Lys05, the control, increased apoptotic signals in a concentration-dependent manner, but its effect at a high concentration close to the IC50 was still milder than those of the low concentrations of BAQ ONNs.

[3] = tested on: various cancer cell lines; assay: Preliminary MTS screening, 24 h; format: cell-based; details: 24 h MTS
Protocol: To verify the therapeutic effects of BAQ12-BAQ18, a preliminary screening was conducted using an MTS assay on various cancer cell lines. […] This decrease was due to gradual declines in the detergence and H^+ buffering capacity of compounds. Based on the results above, BAQ12 and BAQ13 were then selected as representatives for construction of BAQ ONNs in the following studies.
as §2

H460 = assay: MTS cell viability assay; format: cell-based; details: 24 h; read-out: IC50 (μM) in the 24 h treatment H460
Protocol: (§3) Cell line and cell culture. The human pancreatic cancer cell lines (MIA PaCa-2, BXPC3, and PANC-1) were originally purchased from ATCC and were kindly provided by Dr. Shiro Urayama's Lab. HT29, HCT116, H460, MCF7, NIH/3T3, and IMR-90 cell lines were purchased from ATCC. Bone marrow cells were collected from the leg bone marrows of FVB/N mice. All the cells were cultured at 37° C. in a humidified atmosphere of 5% CO2/95% air using the corresponding medium supplemented with 10% fetal bovine serum, […] according to ATCC protocol. All the cell lines have been tested for mycoplasma contamination routinely.
as §2

MCF-7 = assay: MTS cell viability assay; format: cell-based; details: 24 h; read-out: IC50 (μM) in the 24 h treatment MCF-7
Protocol: as §3, §2

HT29 = assay: MTS cell viability assay; format: cell-based; details: read-out: IC50 (μM) in the 24 h treatment HT29
Protocol: as §3, §2

[4] = Nanoparticle characterization of BAQ NPs (DLS, TEM); format: physicochemical; details: assembled NPs in water; for PDI / Size (nm): DLS
Protocol: as §1

BXPC-3 = assay: MTS cell viability assay; format: cell-based, human; details: 24 h; read-out: IC50 (μM) in the 24 h treatment BXPC-3
Protocol: as §3, §2

MIA PaCa-2 = assay: MTS cell viability assay; format: cell-based, human; details: read-out: IC50 (μM) in the 24 h treatment MIA PaCa-2
Protocol: as §3, §2

PANC-1 = assay: MTS cell viability assay; format: cell-based, human; details: 24 h; read-out: IC50 (μM) in the 24 h treatment PANC-1
Protocol: as §3, §2

MIA PaCa-2 cells = assay: RNA sequencing, differentially expressed genes; format: cell-based, human; details: 5 μM, 24 h, vs vehicle
Protocol: RNA-seq. Total RNA was extracted by the RNeasy Mini Kit (Qiagen, Germany) from the treated MIA PaCa-2 cells (5 μM, 24 h). Samples were submitted to the UC Davis Comprehensive Cancer Center's Genomics Shared Resource (GSR) for RNA-Seq analysis. Stranded RNA-Seq libraries were prepared from 100 ng total RNA using the NEBNext Ultra Directional RNA Library Prep Kit (New England BioLabs). Subsequently, libraries were combined for multiplex sequencing on an Illumina HiSeq 4000 System (2×150 bp, paired-end, >20×10^6 reads per sample). The data of normalized genes read counts were analyzed using fold change and t test. The Differentially expressed genes (DEGs) were collected for the signaling pathways enrichment by Funrich software 3.1.3. The gene sets were from MSigDB database (Broad Institute). GSEA was performed using GSEA version 3.0 in KEGG gene sets category online, with the following parameters: n=1,000 permutations, where p-adjust <0.05, and FDR <0.05 were considered significant.

[5] = Titration with hydrochloric acid (pH buffering capacity); format: physicochemical; details: 1 mM, 0.1 M HCl
Red blood cells = assay: pH-dependent haemolysis test; format: cell-based; details: whole pH range, same concentration (50 μM, 4 h)
HCT116 = assay: MTS cell viability assay; format: cell-based; details: Homo sapiens, HCT-116, 48 h; read-out: IC50 values from the 48 h MTS assay (μM) HCT116
Protocol: as §3, §2

HT29 tumours = assay: HT29 xenograft model; details: mice bearing HT29 tumours

Row | PDI [1] | Size/diameter [1] | Encapsulation efficiency [1] | Drug-loading content [1] | IC50 (H460) | IC50 (MCF-7) | IC50 (HT29; 24 h) | Zeta Potential (mV) [4] | PDI [4] | Size (nm) [4] | IC50 (BXPC-3) | IC50 (MIA PaCa-2; 24 h) | IC50 (PANC-1) | SMILES | further results
1 | 0.09 | 92 nm | 89% | 50% | – | – | – | – | – | – | – | – | – | CC(C)C[C@H](NC(=O)[C@H](Cc1ccccc1)NC(=O)c1cnccn1)B(O)O [Bortezomib] | –
2 | 0.133 | 60 nm | 95% | 50% | – | – | – | – | – | – | – | – | – | CC[C@]1(O)C[C@@H]2CN(CCc3c([nH]c4ccccc34)[C@@](C(=O)OC)(c3cc4c(cc3OC)N(C)[C@H]3[C@@](O)(C(=O)OC)[C@H](OC(C)=O)[C@]5(CC)C=CCN6CC[C@]43[C@@H]65)C2)C1 [Vinblastine] | –
3 | 0.069 | 85 nm | 88% | 50% | – | – | – | – | – | – | – | – | – | Nc1cccc2c1CN(C1CCC(=O)NC1=O)C2=O (centres unmarked) [Lenalidomide] | –
4 | – | – | – | – | 2.7 ± 0.5 µM | 3.1 ± 0.1 µM | 3.5 ± 1.2 µM | 36.4 ± 1.5 mV | 0.069 | 102.5 ± 3.1 nm | 2.9 ± 0.6 µM | 4.1 ± 0.8 µM | 4.5 ± 0.9 µM | CCCCCCCCCCCCN(CCNc1ccnc2cc(Cl)ccc12)CCNc1ccnc2cc(Cl)ccc12 [BAQ12] | effect alone versus combination treatment with Lys05 and MSDH [2]: more effective than combination treatment with Lys05 and MSDH; fold more potent than HCQ [2]: 30 fold; fold higher potency than HCQ [3]: ~20 fold; fold higher potency than Lys05 [3]: ~3 fold; fold higher potency than MSDH [3]: ~10 fold
5 | – | – | – | – | 2.2 ± 0.4 µM | 3.7 ± 0.3 µM | 3 ± 1.1 µM | 39.7 ± 1.9 mV | 0.097 | 99.1 ± 2.1 nm | 3.1 ± 0.2 µM | 4.2 ± 1 µM | 4.3 ± 1 µM | CCCCCCCCCCCCCN(CCNc1ccnc2cc(Cl)ccc12)CCNc1ccnc2cc(Cl)ccc12 [BAQ13] | effect alone versus combination treatment with Lys05 and MSDH [2]: more effective than combination treatment with Lys05 and MSDH; fold more potent than HCQ [2]: 30 fold; fold higher potency than HCQ [3]: ~20 fold; fold higher potency than Lys05 [3]: ~3 fold; fold higher potency than MSDH [3]: ~10 fold; downregulated genes (MIA PaCa-2 cells): 181; upregulated genes (MIA PaCa-2 cells): 209; differentially expressed genes (DEGs) (MIA PaCa-2 cells; fold change≥2 and p value≤0.05): 390
6 | – | – | – | – | 24.1 ± 0.4 µM | > 60 µM | 16.1 ± 2.5 µM | 38.0 ± 2.9 mV | 0.086 | 107.3 ± 2.6 nm | 17.2 ± 2 µM | 42 ± 11.7 µM | 34.5 ± 3.9 µM | CCCCCCCCCCCCCCCN(CCNc1ccnc2cc(Cl)ccc12)CCNc1ccnc2cc(Cl)ccc12 [BAQ15] | –
7 | – | – | – | – | – | – | – | – | – | – | – | – | – | CCCCCCCCCCCCNC(=O)[C@@H](N)COC.Cl [MSDH, O-Methyl-Serine-Dodecylamide Hydrochloride] | pH plateau upon titration with HCl [5]: 6.2; IC50 (HT29; Homo sapiens, HT-29, 24 h): 30.3 ± 4.8 µM; haemolytic response to pH (Red blood cells): only a weak haemolytic response to pH; IC50 (MIA PaCa-2; Homo sapiens, MIA PaCa-2, 24 h): 55.5 ± 7.1 µM
8 | – | – | – | – | > 90 µM | > 90 µM | > 80 µM | 40.4 ± 0.5 mV | 0.082 | 119.7 ± 2.1 nm | 27.6 ± 2.8 µM | 60.7 ± 13.9 µM | > 90 µM | CCCCCCCCCCCCCCCCN(CCNc1ccnc2cc(Cl)ccc12)CCNc1ccnc2cc(Cl)ccc12 [BAQ16] | –
9 | – | – | – | – | 24 ± 0.3 µM | 28.5 ± 3.5 µM | 9.6 ± 2 µM | 39.1 ± 0.4 mV | 0.069 | 137.9 ± 4.6 nm | 7.5 ± 0.7 µM | 16 ± 1.8 µM | 10.4 ± 1.8 µM | CCCCCCCCCCCCCCN(CCNc1ccnc2cc(Cl)ccc12)CCNc1ccnc2cc(Cl)ccc12 [BAQ14] | –
10 | – | – | – | – | > 90 µM | > 90 µM | > 100 µM | 39.5 ± 0.8 mV | 0.093 | 96.7 ± 1.6 nm | > 90 µM | > 90 µM | > 90 µM | CCCCCCCCCCCCCCCCCCN(CCNc1ccnc2cc(Cl)ccc12)CCNc1ccnc2cc(Cl)ccc12 [BAQ18] | –
11 | 0.099 | 85 nm | 93% | 50% | – | – | – | – | – | – | – | – | – | COc1ccc(-c2nc(-c3cc(C(F)(F)F)cc(C(F)(F)F)c3)n(Cc3ccc(C(N)=O)cc3)c2-c2ccc(OC)cc2)cc1 [Apoptozole] | –
12 | – | – | – | – | – | – | – | – | – | – | – | – | – | CCN(CCO)CCCC(C)Nc1ccnc2cc(Cl)ccc12 (centres unmarked) [HCQ, hydroxychloroquine] | IC50 (HT29; Homo sapiens, HT-29, 24 h): > 75 µM; IC50 (MIA PaCa-2; Homo sapiens, MIA PaCa-2, 24 h): 79.6 ± 8.5 µM
13 | 0.104 | 69 nm | 86% | 50% | – | – | – | – | – | – | – | – | – | COc1cc([C@@H]2c3cc4c(cc3[C@@H](O[C@@H]3O[C@@H]5CO[C@@H](C)O[C@H]5[C@H](O)[C@H]3O)[C@H]3COC(=O)[C@H]23)OCO4)cc(OC)c1O [Etoposide] | –
14 | – | – | – | – | – | – | – | – | – | – | – | – | – | CCc1c2c(nc3ccc(OC(=O)N4CCC(N5CCCCC5)CC4)cc13)-c1cc3c(c(=O)n1C2)COC(=O)[C@]3(O)CC [Irinotecan] | IC50 (HCT116): 17 ± 1 µM; Median Survival (HT29 tumours; survival analysis in text): 36 days; Median Survival (HT29 tumours; treatment terminated on the 24th day): 36 days
15 | 0.047 | 128 nm | 95% | 33% | – | – | – | – | – | – | – | – | – | CC1(C)CCC2=C(O1)c1ccccc1C(=O)C2=O [β-lapachone] | –

Row | SMILES | PDI [1] | Size/diameter [1] | Encapsulation efficiency [1] | Drug-loading content [1] | IC50 (H460) | IC50 (MCF-7) | IC50 (HT29; 24 h) | Zeta Potential (mV) [4] | PDI [4] | Size (nm) [4] | IC50 (BXPC-3) | IC50 (MIA PaCa-2; 24 h) | IC50 (PANC-1) | further results
16 | Cc1sc2c(c1C)C(c1ccc(Cl)cc1)=N[C@@H](CC(=O)OC(C)(C)C)c1nnc(C)n1-2 [JQ1] | 0.048 | 110 nm | 92% | 50% | – | – | – | – | – | – | – | – | – | –
